For 2 compounds, inhibition results are on record in patent US12435059B2, “AMP-activated protein kinase inhibitors and methods of making and using the same” (The Regents of the University of Colorado, priority 2019, dated 2025).

SMILES strings stand for the structures.

Common to all, as to assay: biochemical
Format in all cases: binding

Test [1] addresses 468 kinases (Homo sapiens, UniProt Q6P2M8). The conditions noted are these: CAMK1B; read-out: % Inhibition @ 100 nM.
Test [2] deals with 468 kinases (Homo sapiens, UniProt Q8IY84). The conditions noted are these: NIMI; read-out: % Inhibition @ 100 nM.
Test [3] has as its target 468 kinases (Homo sapiens, UniProt Q8TDX7). The note with it: NEK7; read-out: % Inhibition @ 100 nM.
Test [4] has as its target 468 kinases (Homo sapiens, UniProt Q13882). The conditions noted are these: BRK; read-out: % Inhibition @ 100 nM.
Test [5] deals with 468 kinases (Homo sapiens, UniProt Q13163). The conditions noted are these: MEK5; read-out: % Inhibition @ 100 nM.
In test [6] the target is 468 kinases (Homo sapiens, UniProt Q8N752). The note with it: CSNK1A1L; read-out: % Inhibition @ 100 nM.
In test [7] the target is 468 kinases (Homo sapiens, UniProt Q08345). The note with it: DDR1; read-out: % Inhibition @ 100 nM.
Test [8] addresses 468 kinases (Homo sapiens, UniProt Q8IVH8). The conditions noted are these: MAP4K3; read-out: % Inhibition @ 100 nM.
In test [9] the target is 468 kinases (Homo sapiens, UniProt Q9H4A3). The conditions noted are these: WNK1; read-out: % Inhibition @ 100 nM.

As to `CCN(CC)CCNC(=O)c1c(C)[nH]c(/C=C2\C(=O)Nc3ccc(CCC(N)=O)cc32)c1C` [Compound No. 16, (Z)-5-((5-(3-Amino-3-oxopropyl)-2-oxoindolin-3-ylidene)methyl)-N-(2-(diethylamino)ethyl)-2,4-dimethyl-1H-pyrrole-3-carboxamide], the inhibition at 0.1 µM on 468 kinases [1] was 30%; on 468 kinases [2], 67%; on 468 kinases [3], 5%; at 468 kinases [4] it was 1%; on 468 kinases [5], 80%; at 468 kinases [6] it was 6%.
On to `CCN(CC)CCNC(=O)c1c(C)[nH]c(/C=C2\C(=O)Nc3ccc(CCO)cc32)c1C` [Compound No. 10, (Z)—N-(2-(Diethylamino)ethyl)-5-((5-(2-hydroxyethyl)-2-oxoindolin-3-ylidene)methyl)-2,4-dimethyl-1H-pyrrole-3-carboxamide], for which the values for the inhibition at 0.1 µM at 468 kinases [7], on 468 kinases [8] and at 468 kinases [9] were 0%, 74% and 0%, respectively.
